Literature values in patent US5089474A, “Novel microproteins” (Roussel Uclaf, priority 1989, dated 1992).

Test system: trypsin
Conditions: statement in words on the known EETI II; cited from earlier work

## EETI II
  property of inhibiting trypsin: inhibiting trypsin
